Measurements taken from patent publication US6914045B2, “Glycopeptide antibiotics” (Wyeth Holdings Corporation, priority 2001, dated 2005).
≈ marks a conversion by molar mass, not a printed value.

What was measured:
Assay in all cases: in vitro antibacterial evaluation, MIC by broth dilution
Type in all cases: cell-based
[1] = test system: Staphylococcus sp.
How it was run: (§1)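 Broth dilution per NCCLS standard M7-A2 in Muller-Hinton II […], with an inoculum of 5×10^5 CFU/mL and antibiotic spanning 64-0.06 μg/mL. The MIC is the lowest concentration that inhibits growth of the organism.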

[2] = test system: Escherichia coli; settings: 18 hours at 35° C.
How it was run: as §1

[3] = test system: Streptococcus sp.; settings: broth dilution, 18 hours at 35° C.
How it was run: as §1

[4] = test system: Enterococcus sp.; settings: broth dilution, 18 hours at 35° C.
How it was run: as §1

[5] = broth dilution, 18 hours at 35° C.
[6] = Enterococcus faecalis (ATCC 29212)
[7] = Enterococcus faecalis (GC 4553)
[8] = Enterococcus faecalis (GC 4554)

CC(c1ccccc1)C1NC(=O)CNC(=O)C(CO)NC(=O)C(C(O)C2CNC(=N)N2C2OC(CO)C(O)C(O)C2O)NC(=O)C(C(O)C2CNC(=N)N2)NC(=O)C(Cc2ccc(OC3OC(CO)C(OC4OC(CO)C(O)C5OC(c6ccccc6)OC45)C(O)C3O)cc2)NC1=O (single isomer, unassigned) [Example 104a, Cyclo[glycyl-β-methylphenylalanyl-O-[4-O-(2,3-O-benzylidenehexopyranosyl)hexopyranosyl]-tyrosyl-3-(2-iminoimidazolidin-4-yl)seryl-3-(3-hexopyranosyl-2-iminoimidazolidin-4-yl)-serylseryl]]
MIC Coagulase Negative Staphylococcus (GC 4547) [1, 5]: 32 µg/mL (≈ 23.1 µM)
MIC Coagulase Negative Staphylococcus (GC 4548) [1, 5]: 16 to 32 µg/mL
MIC Coagulase Negative Staphylococcus (GC 4549) [1, 5]: 16 to 32 µg/mL
MIC Coagulase Negative Staphylococcus (GC 4551) [1, 5]: 32 µg/mL (≈ 23.1 µM)
MIC Coagulase Negative Staphylococcus (GC 6257) [1, 5]: 16 µg/mL (≈ 11.6 µM)
MIC Staphylococcus aureus (ATCC 29213) [1, 5]: 0.5 to 64 µg/mL
MIC Staphylococcus aureus (GC 1131) [1, 5]: 0.5 to 64 µg/mL
MIC Staphylococcus aureus (GC 3051) [1, 5]: 0.5 µg/mL (≈ 0.361 µM)
MIC Staphylococcus aureus (GC 3053) [1, 5]: 0.5 µg/mL (≈ 0.361 µM)
MIC Staphylococcus aureus (GC 4541) [1, 5]: 0.5 to 32 µg/mL
MIC Staphylococcus aureus (GC 4542) [1, 5]: 0.5 µg/mL (≈ 0.361 µM)
MIC Staphylococcus aureus (GC 4544) [1, 5]: 0.5 µg/mL (≈ 0.361 µM)
MIC Staphylococcus aureus (GC 4545) [1, 5]: 0.5 µg/mL (≈ 0.361 µM)
MIC Staphylococcus aureus-SMITH (GC 4543) [1, 5]: 0.5 to 64 µg/mL
MIC Staphylococcus haemolyticus (GC 4546) [1, 5]: 32 µg/mL (≈ 23.1 µM)
MIC Staphylococcus haemolyticus (GC 4546) ([1]; broth dilution, 18 hours at 35° C.; strain GC 4546): 32 µg/mL (≈ 23.1 µM)
MIC Coagulase Negative Staphylococcus (GC 4547) ([1]; broth dilution, 18 hours at 35° C.; strain GC 4547): 32 µg/mL (≈ 23.1 µM)
MIC Coagulase Negative Staphylococcus (GC 4548) ([1]; broth dilution, 18 hours at 35° C.; strain GC 4548): 16 to 32 µg/mL
MIC Coagulase Negative Staphylococcus (GC 4549) ([1]; broth dilution, 18 hours at 35° C.; strain GC 4549): 16 to 32 µg/mL
MIC Coagulase Negative Staphylococcus (GC 4551) ([1]; broth dilution, 18 hours at 35° C.; strain GC 4551): 32 µg/mL (≈ 23.1 µM)
MIC Coagulase Negative Staphylococcus (GC 6257) ([1]; broth dilution, 18 hours at 35° C.; strain GC 6257): 16 µg/mL (≈ 11.6 µM)
MIC Staphylococcus aureus-SMITH (GC 4543) ([1]; broth dilution, 18 hours at 35° C.; strain SMITH GC 4543): 0.5 to 64 µg/mL
MIC Staphylococcus aureus (ATCC 29213) ([1]; strain ATCC 29213; broth dilution, 18 hours at 35° C.): 0.5 to 64 µg/mL
MIC Staphylococcus aureus (GC 1131) ([1]; strain GC 1131; broth dilution, 18 hours at 35° C.): 0.5 to 64 µg/mL
MIC Staphylococcus aureus (GC 3051) ([1]; strain GC 3051; broth dilution, 18 hours at 35° C.): 0.5 µg/mL (≈ 0.361 µM)
MIC Staphylococcus aureus (GC 3053) ([1]; strain GC 3053; broth dilution, 18 hours at 35° C.): 0.5 µg/mL (≈ 0.361 µM)
MIC Staphylococcus aureus (GC 4541) ([1]; strain GC 4541; broth dilution, 18 hours at 35° C.): 0.5 to 32 µg/mL
MIC Staphylococcus aureus (GC 4542) ([1]; strain GC 4542; broth dilution, 18 hours at 35° C.): 0.5 µg/mL (≈ 0.361 µM)
MIC Staphylococcus aureus (GC 4544) ([1]; strain GC 4544; broth dilution, 18 hours at 35° C.): 0.5 µg/mL (≈ 0.361 µM)
MIC Staphylococcus aureus (GC 4545) ([1]; strain GC 4545; broth dilution, 18 hours at 35° C.): 0.5 µg/mL (≈ 0.361 µM)
MIC Escherichia coli (ATCC 25922) ([2]; strain ATCC 25922): >64 µg/mL
MIC Escherichia coli (GC 4559) ([2]; strain GC 4559): >64 µg/mL
MIC Escherichia coli (GC 4560) ([2]; strain GC 4560): 0.5 to 16 µg/mL
MIC Streptococcus agalactiae (GC 4564) ([3]; Streptococcus agalactiae (GC 4564)): 0.5 µg/mL (≈ 0.361 µM)
MIC Streptococcus pneumoniae (ATCC 6301) ([3]; Streptococcus pneumoniae (ATCC 6301)): 0.12 to 16 µg/mL
MIC Streptococcus pneumoniae (GC 1894) ([3]; Streptococcus pneumoniae (GC 1894)): 0.12 to 8 µg/mL
MIC Streptococcus pneumoniae (GC 4565) ([3]; Streptococcus pneumoniae (GC 4565)): 0.12 µg/mL (≈ 0.0867 µM)
MIC Streptococcus pyogenes (GC 4563) ([3]; Streptococcus pyogenes (GC 4563)): 0.12 µg/mL (≈ 0.0867 µM)
MIC Streptococcus pneumoniae (ATCC 6301) ([3]; strain ATCC 6301): 0.12 to 16 µg/mL
MIC Streptococcus pneumoniae (GC 1894) ([3]; strain GC 1894): 0.12 to 8 µg/mL
MIC Streptococcus pyogenes (GC 4563) ([3]; strain GC 4563): 0.12 µg/mL (≈ 0.0867 µM)
MIC Streptococcus agalactiae (GC 4564) ([3]; strain GC 4564): 0.5 µg/mL (≈ 0.361 µM)
MIC Streptococcus pneumoniae (GC 4565) ([3]; strain GC 4565): 0.12 µg/mL (≈ 0.0867 µM)
MIC Enterococcus avium (GC 4558) ([4]; Enterococcus avium (GC 4558)): >64 µg/mL
MIC Enterococcus faecalis (ATCC 29212) [4, 6]: >64 µg/mL
MIC Enterococcus faecalis (GC 2242) ([4]; Enterococcus faecalis (GC 2242)): >64 µg/mL
MIC Enterococcus faecalis (GC 2691) ([4]; Enterococcus faecalis (GC 2691)): >0.5 µg/mL
MIC Enterococcus faecalis (GC 3059) ([4]; Enterococcus faecalis (GC 3059)): >0.5 µg/mL
MIC Enterococcus faecalis (GC 4552) ([4]; Enterococcus faecalis (GC 4552)): >0.5 µg/mL
MIC Enterococcus faecalis (GC 4553) [4, 7]: >0.5 µg/mL
MIC Enterococcus faecalis (GC 4554) [4, 8]: >0.5 µg/mL
MIC Enterococcus faecalis (GC 6189) ([4]; Enterococcus faecalis (GC 6189)): >64 µg/mL
MIC Enterococcus faecium (GC 2243) ([4]; Enterococcus faecium (GC 2243)): >64 µg/mL
MIC Enterococcus faecium (GC 4556) ([4]; Enterococcus faecium (GC 4556)): >64 µg/mL
MIC Enterococcus faecium (GC 4557) ([4]; Enterococcus faecium (GC 4557)): 0.5 µg/mL (≈ 0.361 µM)
MIC Enterococcus faecalis (ATCC 29212) ([4]; strain ATCC 29212): >64 µg/mL
MIC Enterococcus faecalis (GC 2242) ([4]; strain GC 2242): >64 µg/mL
MIC Enterococcus faecium (GC 2243) ([4]; strain GC 2243): >64 µg/mL
MIC Enterococcus faecalis (GC 2691) ([4]; strain GC 2691): >0.5 µg/mL
MIC Enterococcus faecalis (GC 3059) ([4]; strain GC 3059): >0.5 µg/mL
MIC Enterococcus faecalis (GC 4552) ([4]; strain GC 4552): >0.5 µg/mL
MIC Enterococcus faecalis (GC 4553) ([4]; strain GC 4553): >0.5 µg/mL
MIC Enterococcus faecalis (GC 4554) ([4]; strain GC 4554): >0.5 µg/mL
MIC Enterococcus faecium (GC 4556) ([4]; strain GC 4556): >64 µg/mL
MIC Enterococcus faecium (GC 4557) ([4]; strain GC 4557): 0.5 µg/mL (≈ 0.361 µM)
MIC Enterococcus avium (GC 4558) ([4]; strain GC 4558): >64 µg/mL
MIC Enterococcus faecalis (GC 6189) ([4]; strain GC 6189): >64 µg/mL

CC(C)CC(=O)OC1C(OC2C(CO)OC(Oc3ccc(CC4NC(=O)C(C(C)c5ccc(F)cc5)NC(=O)CNC(=O)C(CO)NC(=O)C(C(O)C5CNC(=N)N5C5OC(CO)C(O)C(O)C5O)NC(=O)C(C(O)C5CNC(=N)N5)NC4=O)cc3)C(O)C2O)OC(CO)C(O)C1O (stereo not drawn) [Example 261b, Cyclo[glycyl-4-fluoro-β-methylphenylalanyl-O-[4-O-[2-O-(3-methylbutanoyl)hexopyranosyl]-hexopyranosyl]tyrosyl-3-(2-iminoimidazolidin-4-yl)seryl-3-(3-hexopyranosyl-2-imino-imidazolidin-4-yl)serylseryl]]
MIC Coagulase Negative Staphylococcus (GC 4547) [1, 5]: 8 µg/mL (≈ 5.72 µM)
MIC Coagulase Negative Staphylococcus (GC 4548) [1, 5]: 4 µg/mL (≈ 2.86 µM)
MIC Coagulase Negative Staphylococcus (GC 4549) [1, 5]: 4 µg/mL (≈ 2.86 µM)
MIC Coagulase Negative Staphylococcus (GC 4551) [1, 5]: 8 µg/mL (≈ 5.72 µM)
MIC Staphylococcus aureus (ATCC 29213) [1, 5]: 8 µg/mL (≈ 5.72 µM)
MIC Staphylococcus aureus (GC 1131) [1, 5]: 16 µg/mL (≈ 11.4 µM)
MIC Staphylococcus aureus (GC 4541) [1, 5]: 16 µg/mL (≈ 11.4 µM)
MIC Staphylococcus aureus (GC 4542) [1, 5]: 16 µg/mL (≈ 11.4 µM)
MIC Staphylococcus aureus (GC 4544) [1, 5]: 8 µg/mL (≈ 5.72 µM)
MIC Staphylococcus aureus (GC 4545) [1, 5]: 16 µg/mL (≈ 11.4 µM)
MIC Staphylococcus aureus-SMITH (GC 4543) [1, 5]: 8 µg/mL (≈ 5.72 µM)
MIC Staphylococcus haemolyticus (GC 4546) [1, 5]: 8 µg/mL (≈ 5.72 µM)
MIC Staphylococcus aureus (ATCC 29213) ([1]; broth dilution, 18 hours at 35° C.; strain ATCC 29213): 8 µg/mL (≈ 5.72 µM)
MIC Staphylococcus aureus (GC 1131) ([1]; broth dilution, 18 hours at 35° C.; strain GC 1131): 16 µg/mL (≈ 11.4 µM)
MIC Staphylococcus aureus (GC 4541) ([1]; broth dilution, 18 hours at 35° C.; strain GC 4541): 16 µg/mL (≈ 11.4 µM)
MIC Staphylococcus aureus (GC 4542) ([1]; broth dilution, 18 hours at 35° C.; strain GC 4542): 16 µg/mL (≈ 11.4 µM)
MIC Staphylococcus aureus (GC 4544) ([1]; broth dilution, 18 hours at 35° C.; strain GC 4544): 8 µg/mL (≈ 5.72 µM)
MIC Staphylococcus aureus (GC 4545) ([1]; broth dilution, 18 hours at 35° C.; strain GC 4545): 16 µg/mL (≈ 11.4 µM)
MIC Escherichia coli (ATCC 25922) ([2]; Escherichia coli (ATCC 25922)): >64 µg/mL
MIC Escherichia coli (GC 4559) ([2]; Escherichia coli (GC 4559)): >64 µg/mL
MIC Escherichia coli (GC 4560) ([2]; Escherichia coli (GC 4560)): 4 µg/mL (≈ 2.86 µM)
MIC Streptococcus agalactiae (GC 4564) ([3]; strain GC 4564): 8 µg/mL (≈ 5.72 µM)
MIC Streptococcus pyogenes (ID-3187) ([3]; strain ID-3187): 4 µg/mL (≈ 2.86 µM)
MIC Enterococcus avium (GC 4558) ([4]; Enterococcus avium (GC 4558)): 64 µg/mL (≈ 45.8 µM)
MIC Enterococcus faecalis (ATCC 29212) [4, 6]: >64 µg/mL
MIC Enterococcus faecalis (GC 4553) [4, 7]: 64 µg/mL (≈ 45.8 µM)
MIC Enterococcus faecalis (GC 4554) [4, 8]: >64 µg/mL
MIC Enterococcus faecium (GC 2243) ([4]; Enterococcus faecium (GC 2243)): >64 µg/mL
MIC Enterococcus faecium (GC 4556) ([4]; Enterococcus faecium (GC 4556)): 64 µg/mL (≈ 45.8 µM)
MIC Enterococcus faecium (GC 4557) ([4]; Enterococcus faecium (GC 4557)): 16 µg/mL (≈ 11.4 µM)
MIC Enterococcus faecalis (ATCC 29212) ([4]; strain ATCC 29212): >64 µg/mL
MIC Enterococcus faecalis (GC 2242) ([4]; strain GC 2242): 64 µg/mL (≈ 45.8 µM)
MIC Enterococcus faecium (GC 2243) ([4]; strain GC 2243): >64 µg/mL
MIC Enterococcus faecalis (GC 4552) ([4]; strain GC 4552): 64 µg/mL (≈ 45.8 µM)
MIC Enterococcus faecalis (GC 4553) ([4]; strain GC 4553): 64 µg/mL (≈ 45.8 µM)
MIC Enterococcus faecalis (GC 4554) ([4]; strain GC 4554): >64 µg/mL
MIC Enterococcus faecium (GC 4556) ([4]; strain GC 4556): 64 µg/mL (≈ 45.8 µM)
MIC Enterococcus faecium (GC 4557) ([4]; strain GC 4557): 16 µg/mL (≈ 11.4 µM)
MIC Enterococcus avium (GC 4558) ([4]; strain GC 4558): 64 µg/mL (≈ 45.8 µM)
